# Reference: patent US6984649B1, “Pyridine derivatives” (Bayer Aktiengesellschaft, priority 2000, dated 2006)
# Counter-ions that a name gives are not always drawn.
# System: A549 human lung epithelium cell line
# Test: RANTES production in response to TNF-α from A549 cells
# Format: cell-based
# Details: Homo sapiens, A549, A549 cells, 100 ng/ml TNF-α, read-out: Cellular activity grade (A549) (Cellular IC50)
# Experimental: [The Measurement of RANTES Production in Response to TNF-α from A549 Cells]
# (1) Preparation of A549 Cells
# • The A549 human lung epithelium cell line (ATCC […]) was maintained in Dulbecco's modified Eagle's medium (D-MEM, Nikken Biomedical Institute) supplemented with 10% FCS (Gibco), 100 U/ml penicillin, 100 μg/ml streptomycin, and 2 mM glutamine (culture medium). Forty thousand (4×10^4) cells (80 μl/well) were seeded in each well of 96 well flat-bottom tissue culture plate (Falcon #3072). The plate was allowed to stand for 2 hrs, thus the cells were adhered to the bottom of each well. To the each well was added 10 μl vehicle (1% DMSO), serial dilutions of test compounds in 1% DMSO, or 5 nM Dexamethasone in 1% DMSO as a reference. The mixture (90 μl/well) was incubated for 1 hr at 37° C. After 1 hr, 1 μg/ml TNF-α (10 μl) in culture medium was added to the mixture to obtain 100 μl of reaction mixture. The reaction mixture was cultured for 24 hrs to stimulate the cells with 100 ng/ml TNF-α. Cells with vehicle without TNF-α stimulation were also prepared. (2) Measurement of RANTES Production • Then the concentration of RANTES released from the cells in the supernatants of each well was determined using a quantitative sandwich enzyme immunoassay technique. First, 2 μg/ml mouse anti-huRANTES mAb (R&D Systems, #mAb678) in PBS buffer (pH 7.4, 100 μl) was put in each well of 96-well NUNC fluoro plate (Nalge Nunc, New York USA) (Final 200 ng/well) and the plate was allowed to stand for overnight at 4° C. to be coated by the antibody. Each well of the plate was then washed with 350 μl wash buffer (0.05% Tween-20, 0.85% NaCl, and 25 mM Tris/HCl pH7.4) for three times. Blocking buffer containing 1% BSA (Sigma 99% pure, 100 g), 5% sucrose (Nacalai tesque, 99% pure, 500 g), and 0.02% azide (Nacalai tesque, 100%, 500 g) were added (200 μl) to each well and then the plate was allowed to stand for 4 hours to stabilize the coated antibody. Next, 50 μl supernatants of cell culture prepared in (1) above were put in each well of the 96-well NUNC fluoro plate with coated antibody. Recombinant Human RANTES (Pepro Tech, Inc. #300-06) was used as the standard for the determination of RANTES production (linear range between 1 and 10 ng/ml). Eu-labelled mouse anti-huRANES mAb (60 ng/ml: R&D Systems, #mAb278) in PBS supplemented by 1% BSA and 0.05% Tween 20 was added (50 μl) to each well. The reaction mixtures were incubated at room temperature for 4 hrs. After washing with wash buffer (0.05% Tween-20, 0.85% NaCl, and 25 mM Tris/HCl pH7.4, 350 μl/well) for 5 times with the use of a Sera Washer (Bio-Tech, #MW-96R), the enhancement solution (DELFIA, #1244-405, 100 μl/well) was added to each well. The plate was incubated for 10 minutes at room temperature with moderate shaking. Fluorescent intensity was measured using a DELFIA fluorimeter (Wallac). Excitation was performed at 340 nm and emission was measured at 615 nm. [The Measurement of TNF-α Production in Response to LPS from Peripheral Blood Mononuclear Cells (PBMC)] (1) Preparation of PBMC • Human PBMC were prepared by first obtaining blood from healthy donors and isolating the cells from the blood. The isolation was done by Ficoll gradient-centrifugation method using Ficoll Pacque (Pharmacia #17-1440-02). Within three hours from donation, the isolated PBMC was used. After three times washing with PBS, PBMC were resuspended with RPMI 1640 (Nikken BioMedical Institute) supplemented with 10% FCS (Gibco), 100 U/ml penicillin, 100 μg/ml streptomycin, and 2 mM glutamine (culture medium). The cells (1×10^5 in 150 μL/well) were seeded in each well of 96 well flat-bottom tissue culture plate (Falcon #3072). To the each well was added 20 μl vehicle (1% DMSO), serial dilutions of test compounds in 1% DMSO, or 250 nM Dexamethasone in 1% DMSO as a reference. The mixture (170 μl/well) was incubated for 1 hr at 37° C. After 1 hr, 20 ng/ml LPS (30 μl) in culture medium was added to the mixture to obtain 200 μl of reaction mixture. […]
row,SMILES,IC50 [µM]
1,"N#Cc1c(C2CCCN(Cc3ccccc3)C2)cc(-c2c(O)cccc2OCC2CC2)nc1N (centres unmarked) [Example 3-2, 2-amino-4-(1-benzyl-3-piperidinyl)-6-[2-(cyclopropylmethoxy)-6-hydroxyphenyl]nicotinonitrile]",> 10
2,"N#Cc1c(C2CCCNC2)cc(-c2ccccc2O)nc1NCc1ccccc1 (centres unmarked) [Example 4-1, 2-(benzylamino)-6-(2-hydroxyphenyl)-4-(3-piperidinyl)nicotinonitrile hydrochloride]",1 to 10
3,"CCCNc1nc(-c2ccccc2O)cc(C2CCCNC2)c1C#N (centres unmarked) [Example 4-2, 6-(2-hydroxyphenyl)-4-(3-piperidinyl)-2-(propylamino)nicotinonitrile hydrochloride]",> 10
4,"CNc1nc(-c2ccccc2O)cc(C2CCCNC2)c1C#N (centres unmarked) [Example 4-3, 6-(2-hydroxyphenyl)-2-(methylamino)-4-(3-piperidinyl)nicotinonitrile hydrochloride]",> 10
5,"N#Cc1c(C2CCCNC2)cc(-c2ccccc2O)nc1Nc1ccccc1 (centres unmarked) [Example 4-4, hydrochloride]",1 to 10
6,"Nc1n[nH]c2nc(-c3ccccc3O)cc(C3CCCNC3)c12 (centres unmarked) [Example 5-1, 2-[3-amino-4-(3-piperidinyl)-1H-pyrazolo[3,4-b]pyridin-6-yl]phenol hydrochloride]",1 to 10
7,"CC(=O)Nc1n[nH]c2nc(-c3ccccc3O)cc(C3CCCNC3)c12 (centres unmarked) [Example 5-2, N-[6-(2-hydroxyphenyl)-4-(3-piperidinyl)-1H-pyrazolo[3,4-b]pyridin-3-yl]acetamide hydrochloride]",> 10
8,"CC(=O)Nc1nc(-c2ccccc2O)cc(C2CCCNC2)c1C#N (centres unmarked) [Example 6-1, N-[3-cyano-6-(2-hydroxyphenyl)-4-(3-piperidinyl)-2-pyridinyl]acetamide hydrochloride]",1 to 10
9,"CC(=O)Nc1nc(-c2c(O)cccc2OCC2CC2)cc(C2CCNCC2)c1C#N [Example 6-2, N-[3-cyano-6-[2-(cyclopropylmethoxy)-6-hydroxyphenyl]-4-(4-piperidinyl)-2-pyridinyl]acetamide hydrochloride]",< 1
10,"NC(=O)c1c(C2CCCNC2)cc(-c2ccccc2O)nc1N (centres unmarked) [Example 7-1, 2-amino-6-(2-hydroxyphenyl)-4-(3-piperidinyl)nicotinamide hydrochloride]",1 to 10
11,"O=c1[nH]c(=O)c2c(C3CCCNC3)cc(-c3ccccc3O)nc2[nH]1 (centres unmarked) [Example 7-2, 7-(2-hydroxyphenyl)-5-(3-piperidinyl)pyrido[2,3-d]pyrimidine-2,4(1H,3H)-dione hydrochloride]",> 10
12,"O=c1[nH]c2nc(-c3ccccc3O)cc(C3CCCNC3)c2c(=O)n1-c1ccccc1 (centres unmarked) [Example 7-3, 7-(2-hydroxyphenyl)-3-phenyl-5-(3-piperidinyl)pyrido[2,3-d]pyrimidine-2,4(1H,3H)-dione hydrochloride]",> 10
13,"Nc1nc(-c2ccccc2O)cc2c1C(=O)N1CCCC2C1 (centres unmarked) [Example 8-1, 6-amino-4-(2-hydroxy-phenyl)-5,9-diaza-tricyclo[7.3.1.0^2,7]trideca-2(7),3,5-trien-8-one]",1 to 10
14,"CNC(=O)c1c(C2CCCNC2)cc(-c2ccccc2O)nc1N (centres unmarked) [Example 8-2, 2-amino-6-(2-hydroxyphenyl)-N-methyl-4-(3-piperidinyl)nicotinamide hydrochloride]",1 to 10
15,"CNC(=O)c1c(C2CCCNC2)cc(-c2c(O)cccc2OCC2CC2)nc1N (centres unmarked) [Example 8-3, 2-amino-6-[2-(cyclopropylmethoxy)-6-hydroxyphenyl]-N-methyl-4-(3-piperidinyl)nicotinamide hydrochloride]",< 1
16,"CC(C)(C)OC(=O)c1c(C2CCCNC2)cc(-c2ccccc2O)nc1N (centres unmarked) [Example 9-1, tert-butyl 2-amino-6-(2-hydroxyphenyl)-4-(3-piperidinyl)nicotinate hydrochloride]",1 to 10
17,"Nc1nc(-c2ccccc2O)cc(C2CCCNC2)c1C(=O)O (centres unmarked) [Example 9-2, 2-amino-6-(2-hydroxyphenyl)-4-(3-piperidinyl)nicotinic acid hydrochloride]",1 to 10
